Measured values reported in ChEMBL document CHEMBL3879915, “Methods of inhibiting PRMT5” (2014).

Molecular target: PRMT5/MEP50 complex (Homo sapiens, UniProt O14744)
Assay: Inhibition of recombinant human fetal brain FLAG-tagged PRMT5/full length human testis 6His-tagged MEP50 expressed in baculovirus infected insect Sf9 cells using human histone H4 (1 to 15 residues) as substrate preincubated for 30 mins followed by [3H]-SAM addition

PRMT5/MEP50 complex, sequence (O14744 whole entry, the tested form may be a part): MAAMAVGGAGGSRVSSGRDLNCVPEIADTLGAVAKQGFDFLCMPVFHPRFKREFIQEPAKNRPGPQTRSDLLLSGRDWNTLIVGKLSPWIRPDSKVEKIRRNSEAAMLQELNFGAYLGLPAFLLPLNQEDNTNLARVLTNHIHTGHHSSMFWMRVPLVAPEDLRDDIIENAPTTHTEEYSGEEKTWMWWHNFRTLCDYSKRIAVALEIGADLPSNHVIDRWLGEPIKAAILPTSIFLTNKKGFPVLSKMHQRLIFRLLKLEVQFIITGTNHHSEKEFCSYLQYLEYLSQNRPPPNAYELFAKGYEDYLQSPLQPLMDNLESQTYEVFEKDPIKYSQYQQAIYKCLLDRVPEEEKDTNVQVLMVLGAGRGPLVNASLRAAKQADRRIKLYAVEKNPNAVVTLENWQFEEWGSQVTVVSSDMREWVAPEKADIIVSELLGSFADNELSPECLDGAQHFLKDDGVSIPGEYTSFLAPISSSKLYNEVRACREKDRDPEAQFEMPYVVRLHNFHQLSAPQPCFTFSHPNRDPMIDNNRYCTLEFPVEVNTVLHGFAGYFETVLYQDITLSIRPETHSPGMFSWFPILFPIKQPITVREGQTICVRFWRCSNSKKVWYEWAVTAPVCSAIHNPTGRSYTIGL
PRMT5/MEP50 complex, sequence (Q9BQA1 whole entry, further chain, the tested form may be a part): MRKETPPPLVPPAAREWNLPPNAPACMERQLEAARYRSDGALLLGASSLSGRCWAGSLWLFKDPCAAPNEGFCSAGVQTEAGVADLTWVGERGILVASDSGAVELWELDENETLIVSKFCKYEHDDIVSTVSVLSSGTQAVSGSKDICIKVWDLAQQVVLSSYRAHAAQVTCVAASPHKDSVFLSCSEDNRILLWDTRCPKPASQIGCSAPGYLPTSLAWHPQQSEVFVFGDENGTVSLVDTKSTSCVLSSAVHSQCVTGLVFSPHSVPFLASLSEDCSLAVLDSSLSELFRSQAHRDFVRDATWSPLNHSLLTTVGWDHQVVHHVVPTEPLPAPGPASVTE

Row | IC50 [nM] | Compound
1 | 1000 to 10000 | CN(C(=O)c1cncn1C)c1cccc(OCC(O)CN2CCc3ccccc3C2)c1 (stereo not given)
2 | 1000 to 10000 | OC(COc1cccc(-c2cccc(C(F)(F)F)c2)c1)CN1CCc2ccccc2C1 (stereo not given)
3 | 1000 to 10000 | O=C(NC[C@@H](O)CN1CCc2ccccc2C1)c1ccccc1
4 | 1000 to 10000 | COc1ccc(Cl)c(-c2cccc(OCC(O)CN3CCc4ccccc4C3)c2)c1 (stereo not given)
5 | 1000 to 10000 | CC(=O)N1CCN(CC(O)CN2CCc3ccccc3C2)C(=O)C1 (stereo not given)
6 | 1000 to 10000 | OC(COc1cccc(-c2cncnc2)c1)CN1CCc2ccccc2C1 (stereo not given)
7 | 1000 to 10000 | O=C1COCCN1CC(O)CN1CCc2ccccc2C1 (stereo not given)
8 | 1000 to 10000 | CN(C(=O)c1cn(C)cn1)c1cccc(OCC(O)CN2CCc3ccccc3C2)c1 (stereo not given)
9 | 101 to 1000 | COc1cc(NC2CCOCC2)cc(C(=O)NCC(O)CN2CCc3ccccc3C2)c1 (stereo not given)
10 | 101 to 1000 | O=C(Cc1ccccc1)NC[C@H](O)CN1CCc2ccccc2C1
11 | 10000 to 50000 | Cn1cnc2ccc(-c3cccc(OC[C@@H](O)CN4Cc5ccccc5C4)c3)cc21
12 | 10000 to 40000 | CN(C(=O)c1cocn1)c1cccc(OCC(O)CN2CCc3ccccc3C2)c1 (stereo not given)
13 | 10000 to 50000 | O=c1cccc(CC(O)CN2CCc3ccccc3C2)[nH]1 (stereo not given)
14 | 1000 to 10000 | OC(COc1cccc2ccc(N3CCOCC3)nc12)CN1CCc2ccccc2C1 (stereo not given)
15 | 1000 to 10000 | OC(COc1cccc(C2=CCCCC2)c1)CN1CCc2ccccc2C1 (stereo not given)
16 | 1000 to 10000 | CS(=O)(=O)c1ccc(OCC(=O)NCC(O)CN2CCc3ccccc3C2)cc1 (stereo not given)
17 | 1000 to 10000 | OC(COc1cccc(-c2ccccn2)c1)CN1CCc2ccccc2C1 (stereo not given)
18 | 101 to 1000 | O=C(COC1CCCCC1)NCC(O)CN1CCc2ccccc2C1 (stereo not given)
19 | 101 to 1000 | OC(COc1cccc(CNC2CCOCC2)c1)CN1CCc2ccccc2C1 (stereo not given)
20 | 101 to 1000 | O=C(Cn1ccc2cnc(-c3cccc(OCC(O)CN4CCc5ccccc5C4)c3)nc21)N1CCCCC1 (stereo not given)
21 | 10000 to 50000 | O=C(Cc1ccncc1)NCC(O)CN1CCc2ccccc2C1 (stereo not given)
22 | 1000 to 10000 | Cn1cc2cc(-c3cccc(OCC(O)CN4CCc5ccccc5C4)c3)ccc2n1 (stereo not given)

Row | IC50 [nM] | Compound
23 | 10000 to 40000 | OC(COCc1ccncc1)CN1CCc2ccccc2C1 (stereo not given)
24 | 1000 to 10000 | CS(=O)(=O)Nc1ccccc1C(=O)NCC(O)CN1CCc2ccccc2C1 (stereo not given)
25 | 1000 to 10000 | O=C(COc1cccc2[nH]c(=O)cnc12)NCC(O)CN1CCc2ccccc2C1 (stereo not given)
26 | 1000 to 10000 | OC(COc1cccc(N2CCc3[nH]nc(-c4ccccc4)c3C2)c1)CN1CCc2ccccc2C1 (stereo not given)
27 | > 40000 | CC1Cc2ccccc2CN1CC(O)COc1cccc(CNC2CCCC2)c1 (stereo not given)
28 | 1000 to 10000 | CCOC(=O)CC1c2ccccc2CCN1CC(O)COc1cccc(-c2ccc3ncn(C)c3c2)c1 (stereo not given)
29 | > 40000 | CN(C)S(=O)(=O)c1cccc(-c2cccc(OCC(O)CN3CCc4ccccc4C3)c2)c1 (stereo not given)
30 | > 10000 | Cn1cnc2ccc(-c3cccc(OCC(O)CN4Cc5ccccc5C(F)(F)C4)c3)cc21 (stereo not given)
31 | 1000 to 10000 | O=C(COc1ccccc1OCCN1CCOCC1)NC[C@@H](O)CN1CCc2ccccc2C1
32 | 101 to 1000 | CC1(C)CC(Nc2cccc(C(=O)NCC(O)CN3CCc4ccccc4C3)c2)CCO1 (stereo not given)
33 | 1000 to 10000 | OC(COCc1ccc(Cl)cc1Cl)CN1CCc2ccccc2C1 (stereo not given)
34 | 1000 to 10000 | COc1ccccc1-c1cccc(OCC(O)CN2CCc3ccccc3C2)c1 (stereo not given)
35 | > 10000 | CC(=O)Nc1cncc(OCC(=O)NCC(O)CN2CCc3ccccc3C2)c1 (stereo not given)
36 | 1000 to 10000 | CN1CCC(c2ccccc2OCC(=O)NCC(O)CN2CCc3ccccc3C2)C1 (stereo not given)
37 | > 40000 | CCOC(=O)C1c2ccccc2CCN1CC(O)COc1cccc(-c2ccc3ncn(C)c3c2)c1 (stereo not given)
38 | 1000 to 10000 | OC(COc1cccc(-c2cnccn2)c1)CN1CCc2ccccc2C1 (stereo not given)
39 | 1000 to 10000 | CN(C)c1ccc(N2CCN(C[C@H](O)CN3CCc4ccccc4C3)C(=O)C2)cc1
40 | 1000 to 10000 | O=C1CC(c2ccccc2)CCN1C[C@H](O)CN1CCc2ccccc2C1 (stereo not given in full)
41 | 1000 to 10000 | OC(COc1cccc(-c2ccc(F)cc2)c1)CN1CCc2ccccc2C1 (stereo not given)
42 | 1000 to 10000 | O=C1CN(Cc2ccccc2)CCN1CC(O)CN1CCc2ccccc2C1 (stereo not given)
43 | 1000 to 10000 | O=C(COCc1cccnc1)NCC(O)CN1CCc2ccccc2C1 (stereo not given)
44 | > 10000 | O=C(NC1CCOCC1)C1CC(=O)N(CC(O)CN2CCc3ccccc3C2)C1 (stereo not given)

Row | IC50 [nM] | Compound
45 | 1000 to 10000 | O=C(Nc1cc[nH]n1)c1cccc(OCC(O)CN2CCc3ccccc3C2)c1 (stereo not given)
46 | 1000 to 10000 | O=C(COc1cccc2cccnc12)NC[C@@H](O)CN1Cc2ccccc2C1
47 | 1000 to 10000 | O=C(COC1CCOCC1)NCC(O)CN1CCc2ccccc2C1 (stereo not given)
48 | 1000 to 10000 | OC(COc1cccc(-c2ccc(Cl)cc2)c1)CN1CCc2ccccc2C1 (stereo not given)
49 | 10000 to 40000 | OC(COCc1ccccn1)CN1CCc2ccccc2C1 (stereo not given)
50 | > 40000 | Cn1cnc2ccc(-c3cccc(OCC(O)CN4CCc5ccccc5C4=O)c3)cc21 (stereo not given)
51 | 1000 to 10000 | OC(COC1CCN(c2ccccc2)C1)CN1CCc2ccccc2C1 (stereo not given)
52 | 1000 to 10000 | Cn1cnc2ccc(-c3nccc(NCC(O)CN4CCc5ccccc5C4)n3)cc21 (stereo not given)
53 | 10000 to 50000 | O=C(Cc1ccccc1)NC[C@@H](O)CN1CCc2ccccc2C1
54 | 1000 to 10000 | COc1ccc(Cn2ccc(-c3ccc(OC[C@H](O)CN4CCc5ccccc5C4)cc3)n2)cc1
55 | 1000 to 10000 | OC(COC1CCCN(c2ccccc2)C1)CN1CCc2ccccc2C1 (stereo not given)
56 | 1000 to 10000 | COc1c(COCC(O)CN2CCc3ccccc3C2)ccc2ccccc12 (stereo not given)
57 | < 100 | O=C(NCC(O)CN1CCc2ccccc2C1)c1ccc(OC2CCOCC2)cc1 (stereo not given)
58 | 1000 to 10000 | OC(COCc1ccc(CN2CCOCC2)cc1)CN1CCc2ccccc2C1 (stereo not given)
59 | 10000 to 40000 | OC(CCc1cccc(CNC2CCCC2)c1)CN1CCc2ccccc2C1 (stereo not given)
60 | 1000 to 10000 | NS(=O)(=O)c1ccccc1C(=O)NCC(O)CN1CCc2ccccc2C1 (stereo not given)
61 | > 40000 | COc1cccc2c1CCN(CC(O)COc1cccc(CNC3CCCC3)c1)C2 (stereo not given)
62 | 1000 to 10000 | OC(COc1cccc(CNC2CCNCC2)c1)CN1CCc2ccccc2C1 (stereo not given)
63 | 10000 to 50000 | Cc1cccc(N2CCN(CC(O)CN3CCc4ccccc4C3)C(=O)C2)c1 (stereo not given)
64 | > 50000 | CC(=O)Nc1cccnc1OCC(=O)NCC(O)CN1CCc2ccccc2C1 (stereo not given)
65 | 101 to 1000 | OC(COc1cccc(CNc2cc[nH]n2)c1)CN1CCc2ccccc2C1 (stereo not given)
66 | 1000 to 10000 | OC(COc1cccc(-c2cccnc2)c1)CN1CCc2ccccc2C1 (stereo not given)

Row | IC50 [nM] | Compound
67 | 1000 to 10000 | Cn1cnc2ccc(-c3cccc(OC[C@H](O)CN4Cc5ccccc5C4)c3)cc21
68 | 1000 to 10000 | Oc1ccc(-c2cccc(OCC(O)CN3CCc4ccccc4C3)c2)cc1 (stereo not given)
69 | 1000 to 10000 | Nc1ncccc1OCC(=O)NCC(O)CN1CCc2ccccc2C1 (stereo not given)
70 | 1000 to 10000 | O=C(Nc1cccc(OCC(O)CN2CCc3ccccc3C2)c1)c1cnco1 (stereo not given)
71 | 1000 to 10000 | Cn1cncc1C(=O)Nc1cccc(OC[C@@H](O)CN2CCc3ccccc3C2)c1
72 | 10000 to 40000 | COc1ccc(Cn2ccc(-c3ccc(OC[C@@H](O)CN4CCc5ccccc5C4)cc3)n2)cc1
73 | > 40000 | CC1CN(CC(O)COc2cccc(CNC3CCCC3)c2)Cc2ccccc21 (stereo not given)
74 | 101 to 1000 | OC(COc1ccc(OCC(O)CN2CCc3ccccc3C2)cc1)CN1CCc2ccccc2C1 (stereo not given)
75 | 1000 to 10000 | CS(=O)(=O)Nc1cccnc1OCC(=O)NCC(O)CN1CCc2ccccc2C1 (stereo not given)
76 | 1000 to 10000 | NS(=O)(=O)c1cccc(OCC(=O)NCC(O)CN2CCc3ccccc3C2)c1 (stereo not given)
77 | 1000 to 10000 | Cn1cnc2ccc(-c3cccc(OCC(O)CN4CCc5ccccc5C4(C)C)c3)cc21 (stereo not given)
78 | 101 to 1000 | OC(COCc1cc(-c2ccc(Cl)cc2)no1)CN1CCc2ccccc2C1 (stereo not given)
79 | > 10000 | O=C(COc1cccc2cccnc12)NCC(O)CN1Cc2ccccc2C(F)(F)C1 (stereo not given)
80 | 1000 to 10000 | OC(COC1CCCC1)CN1CCc2ccccc2C1 (stereo not given)
81 | 1000 to 10000 | OC(COc1cccc(-c2ccc(C(F)(F)F)cc2)c1)CN1CCc2ccccc2C1 (stereo not given)
82 | 1000 to 10000 | COc1ccc(Cn2cnc3ccc(-c4ccc(OCC(O)CN5Cc6ccccc6C5)cc4)cc32)cc1 (stereo not given)
83 | 101 to 1000 | O=C(NCC(O)CN1CCc2ccccc2C1)c1cccc(NC2COC2)c1 (stereo not given)
84 | < 100 | Cn1ccc2ccc(-c3ccnc(NCC(O)CN4CCc5ccccc5C4)c3)cc21 (stereo not given)
85 | 101 to 1000 | Cn1cnc2ccc(N3CCCC(OCC(O)CN4CCc5ccccc5C4)C3)cc21 (stereo not given)
86 | 1000 to 10000 | C[C@H](Oc1cccc2cccnc12)C(=O)NC[C@H](O)CN1Cc2ccccc2C1
87 | 1000 to 10000 | O=C(NC[C@@H](O)CN1CCc2ccccc2C1)Nc1ccccc1
88 | 1000 to 10000 | COc1ncc(-c2cccc(OCC(O)CN3CCc4ccccc4C3)c2)cn1 (stereo not given)

Row | IC50 [nM] | Compound
89 | 1000 to 10000 | C[C@@H](Oc1cccc2cccnc12)C(=O)NC[C@@H](O)CN1Cc2ccccc2C1
90 | 1000 to 10000 | CNC(=O)Cn1ccc2cnc(-c3cccc(OCC(O)CN4CCc5ccccc5C4)c3)nc21 (stereo not given)
91 | 1000 to 10000 | O=C(CCc1ccccc1)NCC(O)CN1CCc2ccccc2C1 (stereo not given)
92 | 1000 to 10000 | OC(COCc1ccc(Cl)cc1)CN1CCc2ccccc2C1 (stereo not given)
93 | 1000 to 10000 | Cc1ccc(-c2cccc(OCC(O)CN3CCc4ccccc4C3)c2)cn1 (stereo not given)
94 | > 10000 | CC(=O)Nc1ncccc1OCC(=O)NCC(O)CN1CCc2ccccc2C1 (stereo not given)
95 | 1000 to 10000 | O=C(Nc1cccc(OCC(O)CN2CCc3ccccc3C2)c1)c1cocn1 (stereo not given)
96 | < 100 | O=C(NCC(O)CN1CCc2ccccc2C1)c1cc(NC2CCOCC2)ccn1 (stereo not given)
97 | 101 to 1000 | CN1CCCc2c(OCC(=O)NCC(O)CN3CCc4ccccc4C3)cccc21 (stereo not given)
98 | 1000 to 10000 | COc1ccc(Cn2nccc2-c2ccc(OC[C@H](O)CN3CCc4ccccc4C3)cc2)cc1
99 | 101 to 1000 | O=C(NCC(O)CN1CCc2ccccc2C1)c1cc(NC2CCOCC2)ccc1F (stereo not given)
100 | 1000 to 10000 | O=C1CN(C2CCOCC2)CCN1CC(O)CN1CCc2ccccc2C1 (stereo not given)
101 | 1000 to 10000 | CN1CC(c2ccccc2OCC(=O)NCC(O)CN2CCc3ccccc3C2)C1 (stereo not given)
102 | 1000 to 10000 | CC1Cc2ccccc2CN1CC(O)COc1cccc(-c2ccc3ncn(C)c3c2)c1 (stereo not given)
103 | 1000 to 10000 | Cn1cc(-c2cccc(OCC(O)CN3CCc4ccccc4C3)c2)cn1 (stereo not given)
104 | 101 to 1000 | CC(C)(Oc1ccccc1)C(=O)NCC(O)CN1CCc2ccccc2C1 (stereo not given)
105 | 1000 to 10000 | O=C(Nc1cccc(OCC(O)CN2CCc3ccccc3C2)c1)c1ccnnc1 (stereo not given)
106 | 1000 to 10000 | NC(=O)c1ccc(OCC(=O)NCC(O)CN2CCc3ccccc3C2)cc1 (stereo not given)
107 | 101 to 1000 | O=C(COc1cccc2c1CCCN2)NCC(O)CN1CCc2ccccc2C1 (stereo not given)
108 | 1000 to 10000 | Cn1cncc1C(=O)Nc1cccc(OCC(O)CN2CCc3ccccc3C2)c1 (stereo not given)
109 | 1000 to 10000 | Cc1cccc2c1CCN(CC(O)COc1cccc(-c3ccc4ncn(C)c4c3)c1)C2 (stereo not given)

Row | Compound | IC50 [nM]
110 | O=C(NC[C@H](O)CN1CCc2ccccc2C1)Oc1ccccc1 | 1000 to 10000
